Source: patent US6124310A, “Enediyne compounds” (priority 1995, dated 2000)

Columns and labels:
UV4 cells = test: Growth inhibition of UV4 cells, 18 hours in 96-well plates under aerobic conditions, without or with purified E. coli nitroreductase and NADH; type: cell-based; details: for IC50: Cricetulus griseus, UV4, 18 h, 18 hours, aerobic
Method: The compound prepared in Example 1 was activated by the aerobic nitroreductase from E. coli, by being incubated with UV4 cells for 18 hours in 96-well plates under aerobic conditions.

tumour cell cultures = details: naturally-occurring enediyne antibiotics, literature; cited from earlier work

## O=C(OCc1ccc([N+](=O)[O-])cc1)N1c2ccccc2C23OC24CCCC3C#C/C=C\C#CC14 (racemic) [compound 2, (6R,6aR,10R,10aS,14Z)-(±)-(4-nitrophenyl)methyl 7,8,9,10-tetrahydro-6a,10a-epoxy-6, [3]-hexene[1,5]diynophenanthridine-5(6H)-carboxylate]
UV4 cells; compound alone
  IC50: 18.1 µM
UV4 cells; together with purified E. coli nitroreductase enzyme (1 μg/mL) and NADH (1 mM, as cofactor)
  IC50: 0.19 µM
UV4 cells; ratio of IC50 without / with E. coli nitroreductase + NADH, 1080 min
  fold activation by the enzyme: 115 fold

## O=C(Oc1ccccc1)N1c2ccccc2C23OC24CCCC3C#C/C=C\C#CC14 (stereo not shown) [formula A']
UV4 cells; E. coli nitroreductase, in words: 'neither ... showed any activation'
  showed any activation by the enzyme: neither

## calicheamicin
Tumour cell cultures
  IC50 values for inhibition of growth of tumour cell cultures: low pM range

## dynemicin
Tumour cell cultures
  IC50 values for inhibition of growth of tumour cell cultures: low pM range

## esperamicin
Tumour cell cultures
  IC50 values for inhibition of growth of tumour cell cultures: low pM range
